This assay deals with T1, DNA topoisomerase IB (LdTopIB) (Leishmania donovani, UniProt A0A3Q8IHS4+Q8WQM6).
T1 sequence (A0A3Q8IHS4 1-635): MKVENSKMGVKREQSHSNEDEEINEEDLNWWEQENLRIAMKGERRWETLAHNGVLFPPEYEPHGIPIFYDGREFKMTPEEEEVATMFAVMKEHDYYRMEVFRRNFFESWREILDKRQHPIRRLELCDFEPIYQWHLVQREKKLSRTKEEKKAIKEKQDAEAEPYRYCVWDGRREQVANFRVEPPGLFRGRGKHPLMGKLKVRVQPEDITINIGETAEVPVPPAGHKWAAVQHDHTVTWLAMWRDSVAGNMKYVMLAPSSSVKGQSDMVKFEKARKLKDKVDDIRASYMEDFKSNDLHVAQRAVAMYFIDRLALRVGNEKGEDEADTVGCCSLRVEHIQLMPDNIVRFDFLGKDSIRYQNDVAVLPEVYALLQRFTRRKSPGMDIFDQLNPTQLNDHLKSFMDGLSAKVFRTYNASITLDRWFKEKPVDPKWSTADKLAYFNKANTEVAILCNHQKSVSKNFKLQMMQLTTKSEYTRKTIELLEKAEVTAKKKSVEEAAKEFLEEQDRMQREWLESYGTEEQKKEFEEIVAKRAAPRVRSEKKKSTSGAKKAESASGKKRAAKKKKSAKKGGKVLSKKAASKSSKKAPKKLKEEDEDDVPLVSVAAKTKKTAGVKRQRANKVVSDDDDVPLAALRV
T1 sequence (Q8WQM6 1-262): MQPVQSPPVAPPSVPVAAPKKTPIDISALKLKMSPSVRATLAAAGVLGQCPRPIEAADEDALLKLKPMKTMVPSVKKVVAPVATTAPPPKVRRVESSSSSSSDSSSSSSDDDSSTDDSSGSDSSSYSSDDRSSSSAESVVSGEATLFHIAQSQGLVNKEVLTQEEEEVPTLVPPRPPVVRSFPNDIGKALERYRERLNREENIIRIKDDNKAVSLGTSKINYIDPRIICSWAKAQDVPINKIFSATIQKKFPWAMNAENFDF
Description: supercoiled plasmid DNA relaxation assay with purified recombinant enzyme. Format: biochemical.

The structures appear in SMILES notation.

Consider `CC(C)CCC/C=C\CCCCCCCCCC(=O)O` [compound 1, (Z)-16-methyl-11-heptadecenoic acid], for which the IC50 was 62.3 ± 0.7 µM.

The IC50 is the concentration that inhibits the measured activity by half.
